The text below walks through data of patent US9206445B2, “Biocatalysts with enhanced inhibitor tolerance” (priority 2013, dated 2015).

The assay concerns Z. mobilis 8b. Briefly: Furfural MIC for growth of Z. mobilis (plate screening levels given as MIC multiples). The format is cell-based. Particulars: Zymomonas mobilis, 24 h, read-out: MIC 1× (minimum concentration of inhibitor needed for complete inhibition of growth). The method, then: Both Z. mobilis 8b and 8b knockout library cultures were revived from glycerol stocks in 20 mL MRMG0.75×0.25 (10 g/L yeast extract, 2 g/L KH2PO4 and 1 g/L MgSO4.7H2O, 7.5 g/L glucose and 2.5 g/L xylose) and also containing […] spectinomycin for 1.5 hours at 35° C., 125 rpm. Cells were centrifuged and resuspended to a final OD600 nm of 0.025 in a 100 mL culture, and grown for an additional 3-4 generations at 35° C. in 125 mL Erlenmeyer flasks with foam enclosures, 125 rpm (about 6 hours). Cells were initially screened on MRMGS (5% w/v glucose) plates containing 0, […], 5, or 7.5 g/L of furfural, equivalent to MICs of 0.75×, 1× or 1.5×. MIC 1× is the minimum (lowest) concentration of inhibitor needed for complete inhibition of growth (RMG2) over a 24-hour period. Approximately 500, 1000 and 2000 colonies were plated in triplicates. Furfural levels were also tested at 0.7, 1.5, 3 or 4 g/L in glucose.

In brackets after ≈: the same amount, converted by molar mass.

Turning to `O=Cc1ccco1` [furfural], the MIC was 5000 µg/mL (≈ 52 mM).
